Publication PMC8453848, “Effect of GLPG1205, a GPR84 Modulator, on CYP2C9, CYP2C19, and CYP1A2 Enzymes: In Vitro and Phase 1 Studies” (Clinical Pharmacology in Drug Development, 2021)
Read-outs that look alike come from different tables or passages of the source.

Biological target: CYP2C19 (Homo sapiens, UniProt P33261)
Assay: CYP2C19 inhibition, S-mephenytoin 4'-hydroxylase assay in human liver microsomes
Type: in vitro ADME
Set-up: from tissue; host or cells: in vivo, 14 healthy male subjects
Conditions: for IC50: estimated
Procedure: Inhibition of the biotransformation of CYP‐specific substrates by GLPG1205 was studied using human liver microsomes. Incubation was performed at 37°C with the following conditions: n = 3 for all assays; 0.1 M phosphate buffer (pH 7.4), the cofactor nicotinamide adenine dinucleotide phosphate (NADPH) incubated at 2 mM, the CYP‐specific substrate incubated at 1 nonsaturating concentration, and GLPG1205. Additional incubation was performed with (1) a 30‐minute preincubation step of GLPG1205 with microsomes before the addition of the cofactor NADPH and CYP substrate; and (2) a 30‐minute preincubation step of GLPG1205 with microsomes and the cofactor NADPH, before the addition of the CYP substrate. […] The CYP‐specific substrates were incubated per the above conditions at the following concentrations: tolbutamide, 200 μM, CYP2C9 substrate; S‐mephenytoin, 60 μM, CYP2C19 substrate; phenacetin, 40 μM, CYP1A2 substrate.
Further details of the assays used for each CYP substrate are reported in the Supplemental Methods. Metabolites of the CYP‐specific substrates (acetaminophen for CYP1A2, hydroxytolbutamide for CYP2C9, hydroxymephenytoin for CYP2C19) were quantified using LC‐MS/MS.
Enzymatic activity in the presence of GLPG1205 was expressed as a percentage of the control activity obtained with the vehicle only (ie, without GLPG1205 or reference inhibitor). Decreases in activity of less than 20% were not considered clinically relevant.
Protocol for CYP Inhibition of the biotransformation of CYP-specific substrates by GLPG1205 was studied using human liver microsomes.^7 Incubations were performed at 37°C with the following conditions: n = 3 for all assays; 0.1 M phosphate buffer pH 7.4; the cofactor β-nicotinamide adenine dinucleotide phosphate (NADPH) incubated at 2 mM; the CYP-specific substrate incubated at one non-saturating concentration; and GLPG1205. Additional incubations were performed with: 1) a 30-minute preincubation step of GLPG1205 with microsomes before addition of the cofactor NADPH and CYP substrate; and 2) a 30-minute preincubation step of GLPG1205 with microsomes and the cofactor NADPH, before addition of the CYP substrate.
The CYP-specific substrates were incubated at the following conditions: tolbutamide (200 µM; CYP2C9); S-mephenytoin (60 µM; CYP2C19); phenacetin (40 µM; CYP1A2).^8-10 Reference inhibitors (as detailed in the previous section) were incubated in parallel. […]
A two-fold dilution in D3-OH-mephenytoine at 1 µM in water with 0.1% formic acid was applied to the supernatants and then analysis was performed by LC-MS/MS with chromatographic separation. […] The quantification of the metabolite, hydroxymephenytoin, was performed in MRM mode using the 235.1 to 150.2 transition. […]

Sequence of CYP2C19 (P33261 whole entry): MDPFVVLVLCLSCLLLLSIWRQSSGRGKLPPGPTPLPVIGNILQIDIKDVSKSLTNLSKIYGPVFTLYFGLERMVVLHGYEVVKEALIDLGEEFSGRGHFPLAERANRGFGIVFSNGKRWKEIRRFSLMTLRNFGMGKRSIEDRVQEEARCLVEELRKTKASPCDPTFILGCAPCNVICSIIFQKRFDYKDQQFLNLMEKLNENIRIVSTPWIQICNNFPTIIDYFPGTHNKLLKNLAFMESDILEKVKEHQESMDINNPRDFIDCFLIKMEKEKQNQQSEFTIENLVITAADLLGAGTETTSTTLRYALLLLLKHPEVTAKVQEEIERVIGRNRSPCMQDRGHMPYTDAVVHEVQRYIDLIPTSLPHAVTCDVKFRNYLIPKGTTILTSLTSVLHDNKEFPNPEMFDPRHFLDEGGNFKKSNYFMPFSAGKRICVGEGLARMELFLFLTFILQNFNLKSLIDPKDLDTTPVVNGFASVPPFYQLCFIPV

`O=c1nc(OC[C@@H]2COCCO2)cc2n1CCc1cc(C#CC3CC3)ccc1-2` [GLPG1205, 9‐cyclopropylethynyl‐2‐[(S)‐1‐(1,4)dioxan‐2‐ylmethoxy]‐6,7‐dihydropyrimido[6,1‐a]isoquinolin‐4‐one] was tested, and the “inhibition of CYP2C19 in words” value (GLPG1205 50‐100 μM) was “moderate and reversible”, the IC50 (human liver microsomes, read-out: IC50 for inhibition of CYP2C19) was at least 50 µM and the IC50 (equivalent of ≥50 μM, read-out: IC50 for inhibition of CYP2C19, equivalent) was at least 49.9 µM. It also gave an inhibition at 20 min (human, liver microsomes, pH 7.4, probe S-mephenytoin 60 µM, GLPG1205 50‐100 μM without preincubation, S‐mephenytoin 60 μM) of 44.2 to 49.3%.
